Legend:
[1] = species: Rattus norvegicus; experiment: animal or person; format: functional; conditions: iv, read-out: ID50 (the source's name)
Description: Antagonistic activity towards serotonin 5-HT3 receptor was evaluated by inhibition of 5-HT evoked reflexes in rat on intravenous administration

[2] = pKa value was determined; format: physicochemical

SMILES	ED50 [1] [µg/kg]	pKa [2]
COc1ccccc1NC(=O)NC1CC2CCCC(C1)N2C (stereo not drawn)	7.5	–
CN1C2CCCC1CC(NC(=O)c1nn(C)c3ccccc13)C2 (stereo not drawn) [GRANISETRON]	–	9.1
COc1ccccc1NC(=O)NC1CC2CCC(C1)N2C (stereo not drawn)	2.5	–
CN1C2CCC1CC(NC(=O)N1CC(C)(C)c3ccccc31)C2 (stereo not drawn)	0.7	9.4
COc1ccccc1NC(=O)NC1CC2COCC(C1)N2C (stereo not drawn)	1.1	–
COc1cc(N)c(Cl)cc1C(=O)NC1CC2COCC(C1)N2C (stereo not drawn)	0.09	–
COc1cc(N)c(Cl)cc1C(=O)NC1CC2CCC(C1)N2C (stereo not drawn)	0.8	–
COc1cc(N)c(Cl)cc1C(=O)NC1CC2CCCC(C1)N2C (stereo not drawn)	0.4	–
CN1C2CCC1CC(NC(=O)N1CCc3ccccc31)C2 (stereo not drawn)	1.4	–
CN1C2COCC1CC(NC(=O)c1nn(C)c3ccccc13)C2 (stereo not drawn)	0.16	–
CN1C2COCC1CC(NC(=O)N1CC(C)(C)c3ccccc31)C2 (stereo not drawn)	0.13	7.1
